Assays:
Type in all cases: in vivo
[1] = tested on: wrinkles on the back skin due to photoaging, hairless mice; assay: UV wrinkle model amelioration test; conditions: 9 weeks, 10 mice; for Number of Mice (number) +: +: Wrinkle-ameliorating effect was observed; for Number of Mice (number) ±: ±: Slight wrinkle-ameliorating effect; for Number of Mice (number) −: −: No wrinkle-ameliorating effect
Experimental: UV wrinkle model amelioration tests were conducted with the benzyl ursolate, methoxybenzyl oleanolate, phenylbenzyl betulate, benzoyl oleanolate, methoxybenzoyl betulate, and phenylpropionyl ursolate obtained in the above described Production Examples on hairless mice (5-week old, female) as test animals.
UVB (60 mJ/cm^2) was irradiated to the back skin of each animal of a test group consisting of 10 hairless mice once a day in a frequency of 5 days a week and after 8 weeks formation of wrinkles on the back skin due to photoaging was confirmed. Thereafter, 100 μl of ethanol solutions containing the aromatic compound derivatives of triterpenoid obtained in the Production Examples in concentrations shown in Table 3 were applied thereon once a day in a frequency of 5 days a week. After 9 weeks from the initiation of applying, the degree of ameliorating wrinkles in the skin due to photoaging were evaluated with naked eyes according to the following evaluation criteria.
−: No wrinkle-ameliorating effect was observed.
±: Slight wrinkle-ameliorating effect was observed.
+: Wrinkle-ameliorating effect was observed.
For comparison, ethanol solutions containing of palmitoyl oleanolate or 2-ethylhexyl 2-ethylhexanoyl ursolate in 1% concentration, hitherto used as drugs having a photoaging inhibiting effect, and neat ethanol as a control were applied to hairless mice after UVB irradiation in the same manner as described above and wrinkle-ameliorating effects were evaluated, respectively.

[2] = tested on: Hartley guinea pigs; assay: Allergy test (maximization method); conditions: skin reaction 24 hours after patch removal, scale 0-4
From the text: Allergy tests of benzyl ursolate, methoxybenzyl oleanolate, phenylbenzyl betulate, benzoyl oleanolate, methoxybenzoyl betulate, and phenylpropionyl ursolate obtained in the above-described Production Examples were made using Hartley guinea pigs (300 to 500 g, female) as test animals.
For test groups each consisting of 6 guinea pigs were applied each an aromatic compound derivative of triterpenoid to a concentration of 3 w/v % in olive oil, an aromatic compound derivative of triterpenoid to a concentration of 0.3 w/v % in olive oil, and neat olive oil, respectively, by a maximization method to perform sensitization induction.
Thereafter, in order to induce sufficient immunoresponse, after a grace period of 10 days from the day when the final sensitization was made, there was applied to the back skin of each guinea pig a patch plate having 1.5 cm diameter coated with 100 μl of an aromatic compound derivative of triterpenoid to a concentration of 3 w/v % in olive oil, an aromatic compound derivative of triterpenoid to a concentration of 0.3 w/v % in olive oil, or neat olive oil, and the patch plate was removed after 24 hours. The resulting skin reaction after 24 hours from the removal of the patch plate was evaluated according to the following evaluation criteria and an average score was calculated for each test group.
(§1) 0: No skin reaction being observed
(§2) 1: Weak or unclearly bordered erythema
(§3) 3: Reaction accompanying edema
(§4) 4: Reaction of ulcer, necrosis, or the like

[3] = tested on: Hartley guinea pigs; assay: Skin irritation test (24 hours' closed patch test)
From the text: Skin irritation tests of benzyl ursolate, methoxybenzyl oleanolate, nitrobenzyl betulate, naphthylmethyl ursolate, diphenylmethyl oleanolate, benzoyl oleanolate, methoxybenzoyl betulate, and phenylpropionyl ursolate obtained in the above-described Production Examples were made using Hartley guinea pigs (300 to 500 g, female) as test animals.
For test groups each consisting of 6 guinea pigs, the hair on the back of each guinea pig was removed or shaven and on the hair-removed or shaven portion was applied a plastic adhesive plaster which a cloth patch of 15 mm in diameter impregnated with 50 mg of white vaseline containing a 10% by weight of one of the aromatic compound derivatives of triterpenoid obtained in the Production Examples described above was attached, and then 24 hours' closed patch test was performed. After the closed patch tests were completed, the resulting skin reactions after the removal of the plastic adhesive plasters were evaluated immediately (after 0 hour) and after 24 hours respectively, according to the evaluation criteria below and an average score was calculated based on the results obtained 6 animals in each test group.
as §1, §2, §3, §4
As a control, the above-described test and evaluation were conducted with only white vaseline.

[4] = 3%-challenge patch, 3 w/v % in olive oil
[5] = skin reaction 24 hours after plaster removal, 10% by weight in white vaseline, 24 hours' closed patch, average of 6 guinea pigs, scale 0-4
[6] = skin reaction immediately after plaster removal, 10% by weight in white vaseline, 24 hours' closed patch, average of 6 guinea pigs, scale 0-4

| Compound | Evaluation Score (Average), 3%-induced group ([2]; 0.3%-challenge patch) | Evaluation Score (Average), Olive oil induced group ([2]; 0.3%-challenge patch) | Evaluation Score (Average), 0.3%-induced group ([2]; 0.3%-sensitized group) | Evaluation Score (Average), 3%-induced group [2, 4] | Evaluation Score (Average), Olive oil induced group ([2]; 3%-challenge patch) | Evaluation Score (Average), 0.3%-induced group ([2]; 3%-sensitized group) | Evaluation Score (Average), 3%-induced group ([2]; Olive oil-challenge patch) | Evaluation Score (Average), 0.3%-induced group ([2]; Olive oil-sensitized group) | Score (Average) After 24 hours [3, 5] | Score (Average) After 0 hour [3, 6] | also measured |
| --- | --- | --- | --- | --- | --- | --- | --- | --- | --- | --- | --- |
| CCCCC(CC)COC(=O)[C@]12CC[C@@H](C)[C@H](C)[C@H]1C1=CC[C@@H]3[C@@]4(C)CC[C@H](OC(=O)C(CC)CCCC)C(C)(C)[C@@H]4CC[C@@]3(C)[C@]1(C)CC2 (stereo partly drawn) [2-Ethylhexyl 2-ethylhexanoyl ursolate, 2-ethylhexyl 2-ethylhexanoyl ursolate, reference compound] | – | – | – | – | – | – | – | – | – | – | Number of Mice (number) + ([1]; 1.0 w/v% in ethanol): 6 number; Number of Mice (number) ± ([1]; 1.0 w/v% in ethanol): 4 number; Number of Mice (number) − ([1]; 1.0 w/v% in ethanol): 0 number |
| CC1(C)CC[C@]2(C(=O)O)CC[C@]3(C)C(=CC[C@@H]4[C@@]5(C)CC[C@H](OC(=O)c6ccccc6)C(C)(C)[C@@H]5CC[C@]43C)[C@@H]2C1 [Benzoyl oleanolate, benzoyl oleanolate] | 0 | 0 | 0 | 0 | 0 | 0 | 0 | 0 | 0 | 0 | Number of Mice (number) + ([1]; 0.01 w/v% in ethanol): 6 number; Number of Mice (number) ± ([1]; 0.01 w/v% in ethanol): 4 number; Number of Mice (number) − ([1]; 0.01 w/v% in ethanol): 0 number |
| C[C@H]1[C@H](C)CC[C@]2(C(=O)OCc3ccccc3)CC[C@]3(C)C(=CC[C@@H]4[C@@]5(C)CC[C@H](O)C(C)(C)[C@@H]5CC[C@]43C)[C@H]12 [Benzyl ursolate, benzyl ursolate] | 0 | 0 | 0.17 | 0.17 | 0.33 | 0 | 0 | 0 | 0 | 0 | Number of Mice (number) + ([1]; 0.005 w/v% in ethanol, 100 μl once a day 5 days a week): 9 number; Number of Mice (number) ± ([1]; 0.005 w/v% in ethanol): 1 number; Number of Mice (number) − ([1]; 0.005 w/v% in ethanol): 0 number |
| CC1(C)CC[C@]2(C(=O)OC(c3ccccc3)c3ccccc3)CC[C@]3(C)C(=CC[C@@H]4[C@@]5(C)CC[C@H](O)C(C)(C)[C@@H]5CC[C@]43C)[C@@H]2C1 [Diphenylmethyl oleanolate, diphenylmethyl oleanolate] | – | – | – | – | – | – | – | – | 0 | 0 | – |
| C=C(C)C1CCC2(C(=O)O)CCC3(C)C(CCC4C5(C)CCC(OC(=O)c6ccc(OC)cc6)C(C)(C)C5CCC43C)C12 (stereo not drawn) [Methoxybenzoyl betulate, methoxybenzoyl betulate] | – | – | – | – | – | – | – | – | – | – | Score (Average) After 0 hour ([3]; guinea pig, in vivo): 0; Score (Average) After 24 hours ([3]; guinea pig, in vivo): 0; Number of Mice (number) + ([1]; 0.01 w/v% in ethanol): 8 number; Number of Mice (number) ± ([1]; 0.01 w/v% in ethanol): 2 number; Number of Mice (number) − ([1]; 0.01 w/v% in ethanol): 0 number |
| COc1ccc(COC(=O)[C@]23CCC(C)(C)C[C@H]2C2=CC[C@@H]4[C@@]5(C)CC[C@H](O)C(C)(C)[C@@H]5CC[C@@]4(C)[C@]2(C)CC3)cc1 [Methoxybenzyl oleanolate, methoxybenzyl oleanolate] | 0 | 0.17 | 0 | 0.33 | 0.17 | 0 | 0.17 | 0.17 | 0 | 0 | Number of Mice (number) + ([1]; 0.01 w/v% in ethanol): 7 number; Number of Mice (number) ± ([1]; 0.01 w/v% in ethanol): 3 number; Number of Mice (number) − ([1]; 0.01 w/v% in ethanol): 0 number |
| C=C(C)C1CCC2(C(=O)OCc3ccc([N+](=O)[O-])cc3)CCC3(C)C(CCC4C5(C)CCC(O)C(C)(C)C5CCC43C)C12 (stereo not drawn) [Nitrobenzyl betulate, nitrobenzyl betulate] | – | – | – | – | – | – | – | – | – | – | Score (Average) After 0 hour ([3]; guinea pig, in vivo): 0; Score (Average) After 24 hours ([3]; guinea pig, in vivo): 0 |
| CCCCCCCCCCCCCCCC(=O)OC1CCC2(C)C(CCC3(C)C2CC=C2C4CC(C)(C)CCC4(C(=O)O)CCC23C)C1(C)C (stereo not drawn) [Palmitoyl oleanolate, palmitoyl oleanolate, reference compound] | – | – | – | – | – | – | – | – | – | – | Number of Mice (number) + ([1]; 1.0 w/v% in ethanol): 7 number; Number of Mice (number) ± ([1]; 1.0 w/v% in ethanol): 3 number; Number of Mice (number) − ([1]; 1.0 w/v% in ethanol): 0 number |
| C=C(C)C1CCC2(C(=O)OCc3ccc(-c4ccccc4)cc3)CCC3(C)C(CCC4C5(C)CCC(O)C(C)(C)C5CCC43C)C12 (stereo not drawn) [Phenylbenzyl betulate, phenylbenzyl betulate] | – | – | – | – | – | – | – | – | – | – | Number of Mice (number) + ([1]; 0.05 w/v% in ethanol): 8 number; Number of Mice (number) ± ([1]; 0.05 w/v% in ethanol): 2 number; Number of Mice (number) − ([1]; 0.05 w/v% in ethanol): 0 number |
| C[C@H]1[C@H](C)CC[C@]2(C(=O)O)CC[C@]3(C)C(=CC[C@@H]4[C@@]5(C)CC[C@H](OC(=O)CCc6ccccc6)C(C)(C)[C@@H]5CC[C@]43C)[C@H]12 [Phenylpropionyl ursolate, phenylpropionyl ursolate] | 0.17 | 0 | 0 | 0 | 0 | 0 | 0 | 0 | 0 | 0 | Number of Mice (number) + ([1]; 0.05 w/v% in ethanol): 7 number; Number of Mice (number) ± ([1]; 0.05 w/v% in ethanol): 3 number; Number of Mice (number) − ([1]; 0.05 w/v% in ethanol): 0 number |
| naphthylmethyl ursolate | – | – | – | – | – | – | – | – | 0 | 0 | – |

From patent publication US6338854B1, “Photoaging skin-care preparation and method of treating wrinkled skin” (Pola Chemical Industries, Inc., priority 1996, dated 2002)
